From US7655465B2, “Methods for ex vivo propagation of somatic hair follicle stem cells” (Massachusetts Institute of Technology, priority 2004, dated 2010)

Experiments:
[1] = system: hair follicle epithelial cell cultures; test: Limiting dilution cloning of hair follicle epithelial cells with and without purine supplementation; format: cell-based, mouse; conditions: for Cell clone efficiency, Cloning Condition Purine-supplemented (positive wells/total wells) / Cell clone efficiency, Cloning Condition Purine-free (positive wells/total wells): limiting dilution in 96 well plates; for Cell clone efficiency, Cloning Condition Purine-supplemented (positive wells/total wells): cloned in the presence of the purine used for initial outgrowth (400 uM); for Cell clone efficiency, Cloning Condition Purine-free (positive wells/total wells): cultures grown out with 400 uM purine, cloned without purine
Excerpt: After outgrowth of the follicle epithelial cells, cultures were trypsinized to harvest cells for secondary culture. […] In this manner, purine metabolite-dependent clonal expansion was verified. […] Seventeen Xn-derived clones were transferred to 24-well plates, and 15 survived expansion to full scale cultures for cryo-preservation.

[2] = system: adult stem cell-enriched populations from skeletal muscle, pancreas or small intestinal epithelium of XPRT-transgenic mice; test: Proliferation of adult stem cell-enriched populations explanted from XPRT-transgenic mice in xanthine-supplemented medium; format: cell-based, mouse; conditions: cells explanted from XPRT-transgenic mice
Excerpt: We have generated transgenic mice ubiquitously expressing the xanthine phosphoribosyltransferase (XPRT) gene. We used the gene encoding for XPRT from the protozoan Leismania donovani. The XPRT enzyme can convert Xanthine into xanthosine monophosphate, the critical precursor for cellular guanine nucleotides. This enzyme has no mammalian counterpart and its substrate can enter the cell via ubiquitously expressed nucleobase transporters. Therefore, we can control the kinetics of adult stem cells expressing XPRT by supplementing with or depriving the culture medium of xanthine. In the presence of xanthine, XPRT-expressing cells increase their cellular level of guanine nucleotides independently of their normal endogenous pathway involving the conversion of inosine monophosphate to xanthosine monophosphate by the enzyme inosine monophosphate dehydrogenase.
We have generated transgenic mice ubiquitously expressing the XPRT gene under the control of the chicken β-actin/CMV enhancer. […] We have also shown that the culture of pancreatic cells from one of the transgenic lines gives rise to clusters of small cells with large nuclei. This feature is typical of ductal cells, from which a subset is believed to correspond to the pancreatic adult stem cells. […]

[3] = system: mouse whisker follicle epithelial cells; test: Outgrowth and cell counts of purine-supplemented mouse whisker hair follicle cultures; format: cell-based; conditions: 400 uM purine
Excerpt: Intact mouse whisker hair follicles were dissected from the skin under sterile conditions. The hair shaft was resected at its point of exit from the follicle. The intact follicle was then digested with trypsin, repeatedly washed, and filtered with a nylon mesh to remove external cells that adhere to the follicle capsule. The follicle was then opened with a single longitudinal incision and place in culture medium supplemented with 10% dialyzed fetal bovine serum, epidermal growth factor, and one of three different purine nucleoside metabolites (Hypoxyanthine, xanthosine, or xanthine) each supplemented to 400 uM.
Confluent primary cultures were transferred into to 25-cm^2 flasks. Seven days after this transfer, cell counts were performed before transferring cultures to 75-cm^2 flasks.

O=c1[nH]c(=O)c2ncn([C@@H]3O[C@H](CO)[C@@H](O)[C@H]3O)c2[nH]1 [Xs, xanthosine]
Cell clone efficiency, Cloning Condition Purine-supplemented (positive wells/total wells) [1]: 1/480
Cell clone efficiency, Cloning Condition Purine-free (positive wells/total wells) [1]: 0/96

O=c1[nH]c(=O)c2[nH]cnc2[nH]1 [Xn, xanthine]
Proliferation in xanthine-supplemented culture medium [2]: enhanced proliferation
Promotion of enhanced growth of mouse whisker follicle epithelial cells (comparison of purines) [3]: worked the best
Order of reaching confluency of primary cultures ([3]; three hair follicles in one well of a 24-well plate): reached confluency first
Yield of cell clones and dependence on the purine ([1]; limiting dilution cloning, summary of Table 1): significant number of cell clones with a marked dependence on Xn
Cell clone efficiency, Cloning Condition Purine-supplemented (positive wells/total wells) [1]: 50/480
Cell clone efficiency, Cloning Condition Purine-free (positive wells/total wells) [1]: 4/96

O=c1[nH]cnc2nc[nH]c12 [Hx, hypoxanthine]
Cell clone efficiency, Cloning Condition Purine-supplemented (positive wells/total wells) [1]: 6/480
Cell clone efficiency, Cloning Condition Purine-free (positive wells/total wells) [1]: 0/96
